Results published in US10669261B2, “Heteroarylhydroxypyrimidinones as agonists of the APJ receptor” (BRISTOL-MYERS SQUIBB COMPANY, priority 2015, dated 2020).

Biological target: T1, human APJ receptor (Homo sapiens, UniProt P35414)
T1 construct: expressed in transfected cells
T1 sequence (P35414 1-380): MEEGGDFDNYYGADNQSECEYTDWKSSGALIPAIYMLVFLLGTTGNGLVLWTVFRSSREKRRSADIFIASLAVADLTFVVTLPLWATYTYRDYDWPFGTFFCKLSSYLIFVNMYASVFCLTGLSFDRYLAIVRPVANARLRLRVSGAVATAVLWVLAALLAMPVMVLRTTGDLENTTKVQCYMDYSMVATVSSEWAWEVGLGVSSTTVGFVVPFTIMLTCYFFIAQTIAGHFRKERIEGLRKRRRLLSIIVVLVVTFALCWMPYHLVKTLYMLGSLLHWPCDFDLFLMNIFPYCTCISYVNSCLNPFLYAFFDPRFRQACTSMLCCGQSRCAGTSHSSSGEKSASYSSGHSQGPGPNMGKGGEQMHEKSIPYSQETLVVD
Assay: Intracellular cAMP accumulation assay (APJ hcAMP, HTRF)
Assay type: cell-based
Details: Table 2; HEK293 cells stably expressing human APJ receptor; read-out: hAPJ cAMP EC50 Potency range
How it was run: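 Inhibition of forskolin (2 μM)-driven cAMP, with […], measured by HTRF after 30 min room-temperature compound exposure of stably transfected HEK293 cells. cAMP read from a standard curve; variable-slope fit gives EC50, and maximal inhibition is normalised to (Pyr1)apelin-13 as 100%.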

EC50, 0.01 to 10 nM:
CCCCc1nc(O)c(-c2nnc(Cc3ccc(Cl)cn3)o2)c(=O)n1[C@H]1CCCc2ccccc21 [Example 100, 2-butyl-5-{5-[(5-chloropyridin-2-yl)methyl]-1,3,4-oxadiazol-2-yl}-6-hydroxy-3-[(1S)-1,2,3,4-tetrahydronaphthalen-1-yl]-3,4-dihydropyrimidin-4-one]
CCCCc1nc(O)c(-c2nnc(Cc3ccc(Cl)cn3)o2)c(=O)n1[C@@H](COC)c1ccccc1 [Example 101, 2-butyl-5-{5-[(5-chloropyridin-2-yl)methyl]-1,3,4-oxadiazol-2-yl}-6-hydroxy-3-[(1R)-2-methoxy-1-phenylethyl]-3,4-dihydropyrimidin-4-one]
CCCCc1nc(O)c(-c2nnc(Cc3ccc(Cl)cn3)o2)c(=O)n1[C@@H](CCC)c1ccccc1 [Example 105, 2-butyl-5-{5-[(5-chloropyridin-2-yl)methyl]-1,3,4-oxadiazol-2-yl}-6-hydroxy-3-[(1S)-1-phenylbutyl]-3,4-dihydropyrimidin-4-one]
CCCCc1nc(O)c(-c2nnc(Cc3ccc(Cl)cn3)o2)c(=O)n1[C@@H](C)c1cccc(C#N)c1 [Example 108, 3-[(1S)-1-(2-butyl-5-{5-[(5-chloropyridin-2-yl)methyl]-1,3,4-oxadiazol-2-yl}-4-hydroxy-6-oxo-1,6-dihydropyrimidin-1-yl)ethyl]benzonitrile]
CCCCc1nc(O)c(-c2nnc(Cc3ccc(Cl)cn3)o2)c(=O)n1C(C)c1ccncc1 (stereo not drawn) [Example 109, 2-butyl-5-{5-[(5-chloropyridin-2-yl)methyl]-1,3,4-oxadiazol-2-yl}-6-hydroxy-3-[1-(pyridin-4-yl)ethyl]-3,4-dihydropyrimidin-4-one]
CCCCc1nc(O)c(-c2nnc(Cc3ccc(Cl)cn3)o2)c(=O)n1C(C)c1ccncc1 (stereo not drawn) [Example 111, 2-butyl-5-{5-[(5-chloropyridin-2-yl)methyl]-1,3,4-oxadiazol-2-yl}-6-hydroxy-3-[1-(pyridin-4-yl)ethyl]-3,4-dihydropyrimidin-4-one]
CCCCc1nc(O)c(-c2nnc(Cc3ccc(Cl)cn3)o2)c(=O)n1C(c1ccccc1)C(C)C (stereo not drawn) [Example 113, 2-butyl-5-{5-[(5-chloropyridin-2-yl)methyl]-1,3,4-oxadiazol-2-yl}-6-hydroxy-3-(2-methyl-1-phenylpropyl)-3,4-dihydropyrimidin-4-one]
CCCCc1nc(O)c(-c2nnc(Cc3ccc(Cl)cn3)o2)c(=O)n1[C@@H](C)c1cccc(OC)c1 [Example 116, 2-butyl-5-{5-[(5-chloropyridin-2-yl)methyl]-1,3,4-oxadiazol-2-yl}-6-hydroxy-3-[(1S)-1-(3-methoxyphenyl)ethyl]-3,4-dihydropyrimidin-4-one]
CCCCc1nc(O)c(-c2nnc(Cc3ccc(Cl)cn3)o2)c(=O)n1[C@@H](CC)c1ccccc1 [Example 118, 2-butyl-5-{5-[(5-chloropyridin-2-yl)methyl]-1,3,4-oxadiazol-2-yl}-6-hydroxy-3-[(1S)-1-phenylpropyl]-3,4-dihydropyrimidin-4-one]
CCCCc1nc(O)c(-c2nnc(Cc3ccc(Cl)cn3)o2)c(=O)n1[C@@H](C)c1ccccc1 [Example 119, 2-butyl-5-{5-[(5-chloropyridin-2-yl)methyl]-1,3,4-oxadiazol-2-yl}-6-hydroxy-3-[(1S)-1-phenylethyl]-3,4-dihydropyrimidin-4-one]
CCCCc1nc(O)c(-c2nnc(Cc3ccc(Cl)cn3)o2)c(=O)n1[C@H](C)c1ccccc1 [Example 120, 2-butyl-5-{5-[(5-chloropyridin-2-yl)methyl]-1,3,4-oxadiazol-2-yl}-6-hydroxy-3-[(1R)-1-phenylethyl]-3,4-dihydropyrimidin-4-one]

EC50, 10 to 100 nM:
CCCCc1nc(O)c(-c2nnc(Cc3noc4ccccc34)o2)c(=O)n1[C@@H](C)c1cccc(C#N)c1 [Example 103, 3-[(1S)-1-(5-{5-[(1,2-benzoxazol-3-yl)methyl]-1,3,4-oxadiazol-2-yl}-2-butyl-4-hydroxy-6-oxo-1,6-dihydropyrimidin-1-yl)ethyl]benzonitrile]
CCCCc1nc(O)c(-c2nnc(Cc3csc(C)n3)o2)c(=O)n1[C@@H](C)c1cccc(C#N)c1 [Example 104, 3-[(1S)-1-(2-butyl-4-hydroxy-5-{5-[(2-methyl-1,3-thiazol-4-yl)methyl]-1,3,4-oxadiazol-2-yl}-6-oxo-1,6-dihydropyrimidin-1-yl)ethyl]benzonitrile]
CCCCc1nc(O)c(-c2nnc(Cc3csc(C)n3)o2)c(=O)n1[C@@H](CCC)c1ccccc1 [Example 106, 2-butyl-6-hydroxy-5-{5-[(2-methyl-1,3-thiazol-4-yl)methyl]-1,3,4-oxadiazol-2-yl}-3-[(1S)-1-phenylbutyl]-3,4-dihydropyrimidin-4-one]
CCCCc1nc(O)c(-c2nnc(Cc3noc4ccccc34)o2)c(=O)n1[C@@H](CCC)c1ccccc1 [Example 107, 5-{5-[(1,2-benzoxazol-3-yl)methyl]-1,3,4-oxadiazol-2-yl}-2-butyl-6-hydroxy-3-[(1S)-1-phenylbutyl]-3,4-dihydropyrimidin-4-one]
CCCCc1nc(O)c(-c2nnc(Cc3noc4ccccc34)o2)c(=O)n1C(C)c1ccncc1 (stereo not drawn) [Example 110, 5-{5-[(1,2-benzoxazol-3-yl)methyl]-1,3,4-oxadiazol-2-yl}-2-butyl-6-hydroxy-3-[1-(pyridin-4-yl)ethyl]-3,4-dihydropyrimidin-4-one]
CCCCc1nc(O)c(-c2nnc(Cc3csc(C)n3)o2)c(=O)n1C(c1ccccc1)C(C)C (stereo not drawn) [Example 112, 2-butyl-6-hydroxy-5-{5-[(2-methyl-1,3-thiazol-4-yl)methyl]-1,3,4-oxadiazol-2-yl}-3-(2-methyl-1-phenylpropyl)-3,4-dihydropyrimidin-4-one]
CCCCc1nc(O)c(-c2nnc(Cc3noc4ccccc34)o2)c(=O)n1[C@@H](C)c1cccc(OC)c1 [Example 114, 5-{5-[(1,2-benzoxazol-3-yl)methyl]-1,3,4-oxadiazol-2-yl}-2-butyl-6-hydroxy-3-[(1S)-1-(3-methoxyphenyl)ethyl]-3,4-dihydropyrimidin-4-one]
CCCCc1nc(O)c(-c2nnc(Cc3noc4ccccc34)o2)c(=O)n1C(c1ccccc1)C(C)C (stereo not drawn) [Example 115, 5-{5-[(1,2-benzoxazol-3-yl)methyl]-1,3,4-oxadiazol-2-yl}-2-butyl-6-hydroxy-3-(2-methyl-1-phenylpropyl)-3,4-dihydropyrimidin-4-one]
CCCCc1nc(O)c(-c2nnc(Cc3ccc(Cl)cn3)o2)c(=O)n1[C@@H]1CCc2ccccc21 [Example 122]
CCCCc1nc(O)c(-c2nnc(Cc3ccc(Cl)cn3)o2)c(=O)n1C(C)c1cccnc1 (stereo not drawn) [Example 123, 2-butyl-5-{5-[(5-chloropyridin-2-yl)methyl]-1,3,4-oxadiazol-2-yl}-6-hydroxy-3-[1-(pyridin-3-yl)ethyl]-3,4-dihydropyrimidin-4-one]

EC50, 100 to 300 nM:
CCCCc1nc(O)c(-c2nnc(Cc3noc4ccccc34)o2)c(=O)n1[C@@H](C)c1ccc(OC)cc1 [Example 102, 5-{5-[(1,2-benzoxazol-3-yl)methyl]-1,3,4-oxadiazol-2-yl}-2-butyl-6-hydroxy-3-[(1S)-1-(4-methoxyphenyl)ethyl]-3,4-dihydropyrimidin-4-one]
CCCCc1nc(O)c(-c2nnc(Cc3noc4ccccc34)o2)c(=O)n1[C@@H]1CCc2ccccc21 [Example 117, 5-{5-[(1,2-benzoxazol-3-yl)methyl]-1,3,4-oxadiazol-2-yl}-2-butyl-3-[(1R)-2,3-dihydro-1H-inden-1-yl]-6-hydroxy-3,4-dihydropyrimidin-4-one]
CCCCc1nc(O)c(-c2nnc(Cc3noc4ccccc34)o2)c(=O)n1C(C)c1cccnc1 (stereo not drawn) [Example 121, 5-{5-[(1,2-benzoxazol-3-yl)methyl]-1,3,4-oxadiazol-2-yl}-2-butyl-6-hydroxy-3-[1-(pyridin-3-yl)ethyl]-3,4-dihydropyrimidin-4-one]
